Earlier results on 1 compound are cited in patent US20060135599A1, “Use for pharmaceutical composition” (GW Pharma Limited, priority 2002, published 2006).

Series [1] relates to spasticity. The note with it: oral, nine patients.
The subject of series [2] is spasticity. The note with it: oral, 13 patients.

`CCCCCc1cc(O)c2c(c1)OC(C)(C)[C@@H]1CCC(C)=C[C@@H]21` [oral THC, Δ^9 tetrahydrocannabinol]: the “spasticity compared with placebo” value in the series with spasticity [1] is given as “statistically significant reduction”. In the series on spasticity [2], the “subjective improvements in spasticity” value is “significant subjective improvements”.
